We go through 12 compounds from PubChem BioAssay (NCI).

Structures are written as SMILES.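 How tested: cells in 96-well plates exposed to compound for 48 hours at five concentrations. GI50 marks 50% less growth. TGI is the concentration that stops growth completely.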

Test systems include NCI/ADR-RES ovarian; A498 renal; T-47D breast; CCRF-CEM leukemia; HCT-15 colon; UO-31 renal; KM12 colon; MDA-MB-435; SF-268 CNS; COLO 205 colon; OVCAR-4 ovarian; MOLT-4 leukemia; SK-OV-3 ovarian.
What all share (experiment): NCI-60 cell line screen, 48 h

Regarding `C1CNCCNCCN1`, the TGI with NCI/ADR-RES ovarian, in the assay on A498 renal, in the assay with T-47D breast, in the assay with CCRF-CEM leukemia, in the assay with HCT-15 colon and in the assay on UO-31 renal was > 100 µM throughout. Besides, the TGI in the assay with KM12 colon, in the assay on MDA-MB-435, in the assay with SF-268 CNS, in the assay with COLO 205 colon, with OVCAR-4 ovarian and in the assay on MOLT-4 leukemia was > 100 µM in each case.
Consider `COC(=O)C1=C2SCc3cccc(c3)CSC3=C(C(=O)OC)SC(=C(S2)S1)S3`, for which the TGI in the assay with A498 renal, in the assay with T-47D breast, with CCRF-CEM leukemia, in the assay with UO-31 renal, with KM12 colon and with MDA-MB-435 was > 100 µM in each case. Moreover, the TGI in the assay with SK-OV-3 ovarian, with COLO 205 colon, in the assay on OVCAR-4 ovarian and in the assay on MOLT-4 leukemia was > 100 µM throughout.
On to `CCN1C(=O)C(=C/C=C/c2ccc([N+](=O)[O-])cc2)C(=O)N(CC)C1=S`, for which the TGI in the assay on NCI/ADR-RES ovarian is 45.2 µM; in the assay on T-47D breast, > 100 µM; in the assay on CCRF-CEM leukemia it was > 100 µM; in the assay on HCT-15 colon it was > 100 µM; in the assay with UO-31 renal, 37.2 µM; in the assay with KM12 colon it was 60.7 µM. For the same compound, the TGI in the assay on MDA-MB-435 is 47.7 µM; in the assay with SK-OV-3 ovarian it was > 100 µM; in the assay on SF-268 CNS it was 53 µM; in the assay with COLO 205 colon it was > 100 µM; in the assay with OVCAR-4 ovarian it was > 100 µM; in the assay with MOLT-4 leukemia it was > 100 µM.
With `O=C1c2ccccc2-c2nc(-c3cccc([N+](=O)[O-])c3)nnc21`, the TGI in the assay on NCI/ADR-RES ovarian is 37 µM; in the assay on T-47D breast it was > 100 µM; in the assay with CCRF-CEM leukemia it was > 100 µM; in the assay with HCT-15 colon, 59.9 µM; in the assay on UO-31 renal it was 42.2 µM; in the assay on KM12 colon, > 100 µM. Further, the TGI was 4.05 µM with MDA-MB-435; > 100 µM in the assay with SK-OV-3 ovarian; > 100 µM in the assay on SF-268 CNS; 12.6 µM with COLO 205 colon; > 100 µM with OVCAR-4 ovarian; > 100 µM in the assay with MOLT-4 leukemia.
Consider `O=C(Cc1ccccc1)NN1C(=O)/C(=C\c2cccc(O)c2)SC1=Nc1ccccc1`, for which the TGI in the assay with NCI/ADR-RES ovarian, in the assay with A498 renal, in the assay with T-47D breast, in the assay with HCT-15 colon, in the assay with UO-31 renal and with KM12 colon was > 100 µM each time. In addition, the TGI with MDA-MB-435, with SK-OV-3 ovarian, with SF-268 CNS, with COLO 205 colon and in the assay with OVCAR-4 ovarian was > 100 µM each time.
Take `Nc1cccc(Nc2nc3ccccc3nc2NS(=O)(=O)c2ccccc2)c1`: the TGI in the assay with NCI/ADR-RES ovarian is > 100 µM; in the assay with T-47D breast it was > 100 µM; with CCRF-CEM leukemia, 46.7 µM; in the assay on HCT-15 colon it was 74.2 µM; in the assay with UO-31 renal it was 50.4 µM; with KM12 colon, 41.7 µM. Further, the TGI in the assay with MDA-MB-435 is 62.4 µM; with SK-OV-3 ovarian it was > 100 µM; in the assay on SF-268 CNS it was > 100 µM; in the assay with COLO 205 colon, 29.7 µM; in the assay with OVCAR-4 ovarian, 46.5 µM; in the assay with MOLT-4 leukemia, 48.9 µM.
As for `Cc1cn(C(Cc2ccccc2)OCCO)c(=O)[nH]c1=O` (stereo not given), the TGI in the assay on NCI/ADR-RES ovarian, with A498 renal, in the assay with T-47D breast, with CCRF-CEM leukemia, in the assay with HCT-15 colon and in the assay with UO-31 renal was > 100 µM throughout. For the same compound, the TGI in the assay on KM12 colon, in the assay with MDA-MB-435, with COLO 205 colon, in the assay on OVCAR-4 ovarian and with MOLT-4 leukemia was > 100 µM in each case.
Consider `O=C(OCC1OC2OC(c3ccccc3)(n3ccc4c([N+](=O)[O-])ccnc43)OC2C1OC(=O)c1ccccc1)c1ccccc1` (stereo not given), for which the TGI with NCI/ADR-RES ovarian, in the assay on A498 renal, in the assay with T-47D breast, in the assay with CCRF-CEM leukemia, with HCT-15 colon and in the assay with UO-31 renal was > 100 µM in each case. Also, the TGI in the assay with KM12 colon, in the assay on MDA-MB-435, in the assay on SK-OV-3 ovarian, in the assay with OVCAR-4 ovarian and in the assay on MOLT-4 leukemia was > 100 µM each time.
Consider `CCCCCC(=O)NC(=S)Nc1nn[nH]n1`, for which the TGI in the assay with A498 renal, in the assay with T-47D breast, with CCRF-CEM leukemia, in the assay with HCT-15 colon, with UO-31 renal and in the assay on KM12 colon was > 100 µM each time. For the same compound, the TGI in the assay with MDA-MB-435, in the assay on SK-OV-3 ovarian, in the assay with SF-268 CNS, in the assay on COLO 205 colon, in the assay on OVCAR-4 ovarian and with MOLT-4 leukemia was > 100 µM each time.
On to `COC(=O)[C@@H]1CCCN1CCN1CCC[C@H]1C(=O)OC`, for which the TGI with NCI/ADR-RES ovarian, in the assay with A498 renal, in the assay on T-47D breast, with HCT-15 colon, in the assay on UO-31 renal and with KM12 colon was > 100 µM each time. In addition, the TGI in the assay on MDA-MB-435, in the assay with SK-OV-3 ovarian, in the assay with SF-268 CNS, in the assay with COLO 205 colon, in the assay on OVCAR-4 ovarian and with MOLT-4 leukemia was > 100 µM in each case.
Consider `O=C(NCCCCCCNCc1cccc2ccccc12)Nc1cccc2ccccc12`, for which the TGI in the assay on NCI/ADR-RES ovarian, in the assay with A498 renal, in the assay on T-47D breast, in the assay with CCRF-CEM leukemia, in the assay with HCT-15 colon and with UO-31 renal was > 100 µM throughout. Besides, the TGI in the assay on KM12 colon, in the assay with MDA-MB-435, in the assay on SF-268 CNS, in the assay on COLO 205 colon, with OVCAR-4 ovarian and with MOLT-4 leukemia was > 100 µM each time.
Consider `CCOC(=O)/C=C(\C(=O)OCC)n1cc(C)c(=O)n(Cc2cnnn2CCCCOC(C)=O)c1=O`, for which the TGI with NCI/ADR-RES ovarian was 35.8 µM; with A498 renal, 37.5 µM; with T-47D breast, > 51 µM; in the assay on CCRF-CEM leukemia, 4.71 µM; with HCT-15 colon, > 25.2 µM; with UO-31 renal it was 30 µM. Besides, the TGI in the assay on KM12 colon was 34.4 µM; in the assay on MDA-MB-435, 26.1 µM; in the assay with SK-OV-3 ovarian it was > 92.4 µM; with SF-268 CNS, 54.1 µM; in the assay on OVCAR-4 ovarian, 58 µM; in the assay on MOLT-4 leukemia it was > 25.6 µM. The GI50 with CCRF-CEM leukemia is 1.32 µM.
